Results as given in patent US4769378A, “Indenopyrimidine aromatase inhibitors” (Eli Lilly and Company, priority 1986, dated 1988).

Biological target: T1, aromatase (Rattus norvegicus, UniProt P22443)
T1 construct: ovarian microsomes are obtained from rats treated with pregnant mares serum gonadotropin; from tissue; host or cells: rat ovary microsomes (rats treated with pregnant mares serum gonadotropin)
T1 sequence (P22443 1-508): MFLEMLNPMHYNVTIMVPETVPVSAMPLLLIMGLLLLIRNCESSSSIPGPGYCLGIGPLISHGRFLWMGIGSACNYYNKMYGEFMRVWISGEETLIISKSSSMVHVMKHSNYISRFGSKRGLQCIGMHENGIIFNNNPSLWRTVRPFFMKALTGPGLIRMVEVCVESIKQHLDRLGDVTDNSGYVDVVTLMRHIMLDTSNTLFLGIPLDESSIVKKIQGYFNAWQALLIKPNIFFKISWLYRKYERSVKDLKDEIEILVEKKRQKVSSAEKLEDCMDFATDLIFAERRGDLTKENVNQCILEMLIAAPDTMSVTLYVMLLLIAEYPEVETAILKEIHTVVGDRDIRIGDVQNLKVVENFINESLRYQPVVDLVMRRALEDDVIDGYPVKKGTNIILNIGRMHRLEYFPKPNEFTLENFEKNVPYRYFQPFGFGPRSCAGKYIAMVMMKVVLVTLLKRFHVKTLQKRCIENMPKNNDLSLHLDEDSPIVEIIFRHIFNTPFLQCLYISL
Assay: Aromatase inhibition in the rat ovarian microsome assay
Type: biochemical
Conditions: substrate (androstenedione) concentration 0.1 μM; rat ovarian microsomes; read-out: EC50 (concentration of compound required to achieve 50% inhibition of aromatase activity)
Procedure: In this test system, ovarian microsomes are obtained from rats treated with pregnant mares serum gonadotropin. Test compounds are added to reaction vials containing 0.1 μM 4-androstene-3,17-dione, 100,000 dpm 1,2[^3 H]-androstenedione, the microsomes and a NADPH generating system. The concentrations of the inhibitors tested ranged between 5 and 10000 nM. […] Potency is determined based on the concentration of inhibitor in nM required to produce a 50% inhibition of enzyme activity (EC50) when the concentration of substrate (androstenedione) is 0.1 μM.

| Structure (SMILES) | EC50 [nM] |
| --- | --- |
| Clc1ccc2c(c1)-c1ncncc1C2c1ccccc1 (stereo not drawn) [Example 3, 8-chloro-5-phenyl-5H-indeno[1,2-d]pyrimidine] | 21 |
| Clc1ccc(C2c3ccccc3-c3ncncc32)cc1Cl (stereo not drawn) [Example 11, 5-(3,4-dichlorophenyl)-5H-indeno[1,2-d]pyrimidine] | < 50 |
| COc1ccc2c(c1)C(c1ccc(Cl)cc1)c1cncnc1-2 (stereo not drawn) [Example 12, 5-(4-chlorophenyl)-7-methoxy-5H-indeno[1,2-d]pyrimidine] | 128 |
| COc1ccc2c(c1)C(c1ccc(F)cc1)c1cncnc1-2 (stereo not drawn) [Example 13, 5-(4-fluorophenyl)-7-methoxy-5H-indeno[1,2-d]pyrimidine] | 61 |
| COc1ccc2c(c1)-c1ncncc1C2c1cccc(Cl)c1 (stereo not drawn) [Example 16, 5-(3-chlorophenyl)-8-methoxy-5H-indeno[1,2-d]pyrimidine] | < 50 |
| COc1ccc2c(c1)C(O)(c1ccc(Cl)cc1)c1cncnc1-2 (stereo not drawn) [Example 20, 5-(4-chlorophenyl)-7-methoxy-5H-indeno[1,2-d]pyrimidin-5-ol] | 420 |
| CC(=O)NC1(c2ccc(Cl)cc2)c2ccc(Cl)cc2-c2ncncc21 (stereo not drawn) [Example 23, N-[8-chloro-5-(4-chlorophenyl)-5H-indeno[1,2-d]pyrimidin-5-yl]acetamide] | 265 |
| CC(=O)NC1(c2ccc(Cl)cc2Cl)c2ccccc2-c2ncncc21 (stereo not drawn) [Example 25, N-[5-(2,4-dichlorophenyl)-5H-indeno[1,2-d]pyrimidin-5-yl]acetamide] | 500 |
| ClC1(c2ccccc2)c2ccccc2-c2ncncc21 (stereo not drawn) [Example 26, 5-chloro-5-phenyl-5H-indeno[1,2-d]pyrimidine] | 118 |
| Clc1ccc(C2(Cl)c3ccc(Cl)cc3-c3ncncc32)cc1 (stereo not drawn) [Example 27, 5,8-dichloro-5-(4-chlorophenyl)-5H-indeno[1,2-d]pyrimidine] | 72 |
| FC1(c2ccc(Cl)cc2)c2ccc(Cl)cc2-c2ncncc21 (stereo not drawn) [Example 28, 8-chloro-5-(4-chlorophenyl)-5-fluoro-5H-indeno[1,2-d]pyrimidine] | 35 |

The remaining lines, values ahead:

| EC50 [nM] | Structure (SMILES) |
| --- | --- |
| 84 | c1ccc(C2c3ccccc3-c3ncncc32)cc1 (stereo not drawn) [Example 7, 5-phenyl-5H-indeno[1,2-d]pyrimidine] |
| 63 | Clc1ccc(C2c3ccccc3-c3ncncc32)c(Cl)c1 (stereo not drawn) [Example 8, 5-(2,4-dichlorophenyl)-5H-indeno[1,2-d]pyrimidine] |
| < 50 | Fc1cccc(C2c3ccccc3-c3ncncc32)c1 (stereo not drawn) [Example 9, 5-(3-fluorophenyl)-5H-indeno[1,2-d]pyrimidine] |
| 84 | Clc1ccc(Cl)c(C2c3ccccc3-c3ncncc32)c1 (stereo not drawn) [Example 10, 5-(2,5-dichlorophenyl)-5H-indeno[1,2-d]pyrimidine] |
| 86 | Fc1ccccc1C1c2ccccc2-c2ncncc21 (stereo not drawn) [Example 14, 5-(2-fluorophenyl)-5H-indeno[1,2-d]pyrimidine] |
| < 50 | Fc1ccc(C2c3ccccc3-c3ncncc32)cc1 (stereo not drawn) [Example 15, 5-(4-fluorophenyl)-5H-indeno[1,2-d]pyrimidine] |
| 750 | Fc1ccc2c(c1)C(c1ccccc1F)c1cncnc1-2 (stereo not drawn) [Example 17, 7-fluoro-5-(2-fluorophenyl)-5H-indeno[1,2-d]pyrimidine] |
